The source of these data is patent publication US6919470B2, “Aryl and heteroaryl sulfonates” (priority 2000, dated 2005).

The term clearance denotes a measure of how efficiently the substance is removed, as volume per time. Higher therefore signals a high capacity for elimination. One may read the half-life as the time in which the quantity being followed falls by half. Higher therefore signals slow loss. As usually defined, the Tmax is the time at which the peak concentration occurs. By IC50 is commonly meant the concentration that gives 50% inhibition. The low end stands for greater potency in that assay, the high end for weaker potency in that assay.

Data set [1] can be described thus: Microsomal stability investigation (rat liver microsomes). Format: in vitro ADME. The note with it: predicted from microsomal data. An excerpt:
The metabolic stability of the compounds according to the invention can be found in the following in vitro assay: 4. Microsomal Stability Investigation The metabolic stability of the compounds according to the invention can be measured in rat liver microsomes (in analogy to J. Pharmacol. Exp. Ther. 1997, 283. 46-58). To determine the microsomal stability and extrapolate to the maximum possible bioavailability (Fmax) owing to the first-past effect in the liver (phase 1 reactions), the substance is incubated in low concentration with microsomal protein, with addition of cofactors, at 37° C. for 15 minutes. The incubation and the sampling take place on a modified automatic pipettor from Canberra Packard. Microsomal data (rat liver microsomes) predict a maximum possible availability of up to 100%.

Data set [2] can be described thus: Pharmacokinetics in the rat. Format: in vivo. On the procedure: The bioavailability of the compounds according to the invention, and other pharmacokinetic parameters, can be determined in vivo in the following way:
5. Pharmacokinetics in the Rat
The substance is infused through a Braunüle in a lateral tail vein directly into the blood stream over 15 minutes. A calibrated 20 ml syringe is used for accurate administration of the chosen dose and volume. A Braun Melsungen No. 152440/1 pump is used for the infusion.
The substance is administered as bolus by gavage.
Blood samples are collected from catheterized animals jugular vein) in heparinized tubes. The blood is centrifuged and the plasma is prepared in a suitable manner for analysis (LC-MS-MS). The plasma is stored at <−15° C. until analyzed.
d) Pharmacokinetic Results of Example 2

The target in a further data set is T1, CB1 receptor (Rattus norvegicus, UniProt P20272).
T1 construct: from tissue; host or cells: whole animal (rat), oral dosing
T1 sequence (P20272 whole entry): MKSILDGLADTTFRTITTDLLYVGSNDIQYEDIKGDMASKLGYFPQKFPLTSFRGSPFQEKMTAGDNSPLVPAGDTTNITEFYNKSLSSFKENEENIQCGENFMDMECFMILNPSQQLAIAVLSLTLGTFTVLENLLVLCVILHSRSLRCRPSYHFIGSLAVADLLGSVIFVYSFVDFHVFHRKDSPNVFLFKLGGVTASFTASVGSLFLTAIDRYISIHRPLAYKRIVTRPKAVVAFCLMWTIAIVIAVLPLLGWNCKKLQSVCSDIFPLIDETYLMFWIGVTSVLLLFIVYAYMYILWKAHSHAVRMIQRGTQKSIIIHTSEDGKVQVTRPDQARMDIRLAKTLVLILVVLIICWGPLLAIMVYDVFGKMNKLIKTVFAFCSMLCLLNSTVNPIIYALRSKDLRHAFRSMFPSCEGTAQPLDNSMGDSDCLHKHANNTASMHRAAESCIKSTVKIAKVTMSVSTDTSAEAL
Briefly: Rat hypothermia agonism test. The note with it: oral administration. Format: in vivo. The method, then:
The in vivo agonistic effect on the CB1 receptor was examined in the rat hypothermia assay.
Five minutes after determining the basal body temperature via an esophageal temperature probe, the test substance is administered (orally). A control group receives, likewise orally, only the solvent for the test substances (Cremophors EL 1-10%+distilled water). The body temperature is measured 120 and 240 minutes after oral administration. The size of the group for each dose is 5-7 animals (rats).
Rat Hypothermia Agonism Test

Data set [3] deals with rat. Briefly: Axotomy of sciatic branches in the rat (chronic pain model). Format: in vivo. As to conditions: orally, acute administration, 60 minutes before the test. The method, then:
7. Axotomy of Sciatic Branches in the Rat (Chronic Pain Model)
Under pentobarbital anesthesia, the trifurcation of a sciatic nerve is exposed, and the peroneal and tibial branches are axotomized after the nerves have been ligated proximal of the axotomy site. Control animals undergo a sham operation. After the operation, the axotomized animals develop chronic mechanical allodynia and thermal hyperalgesia.
The mechanical allodynia is tested, comparing with sham-operated animals, with the aid of a pressure transducer (electronic von Frey anesthesiometer, IITC Inc.-Life Science Instruments, Woodland Hills, Calif., USA).
The thermal hyperalgesia can be determined by measuring the latency time within which a rat removes a paw from the area of a radiant heat source (plantar test, Ugo Basile (Milan)).
The substance was administered by various administration routes (i.v., i.p., orally, i.t., i.c.v., transdermally) at various times before the pain testing.
Example 2 reduces the hyperalgesia in the model at a minimally effective dose of 1 mg/kg orally (acute administration, 60 minutes before the test).

Data set [4] deals with rat. Put plainly: 6-Hydroxydopamine (6-OH-DA) lesion in the rat, staircase test. Type of data set: in vivo. The note with it: oral dose of 1.0 mg/kg bid. On the procedure: 8.6-Hydroxydopamine (6-OH-DA) Lesion in the Rat
Degeneration of dopaminergic nigrostriatal and striatopallidal neurotransmission is the main characteristic of Parkinson's disease. The clinical picture of Parkinson's disease can be simulated to a large extent in an animal model in which the neurotoxin 6-OH-DA is injected intracerebrally in rats.
Male rats (Harlan Winkelmann, Germany; weight at start of test: 200-250 g) were used for the experiments described. The experimental animals were housed under controlled conditions (humidity, temperature) with a 12-hour light/dark cycle. Those animals not involved in an experiment had free access to water and feed.
On the day of the operation, 30 minutes before the lesion, pargyline (Sigma, St. Louis, Mo., USA; 50 mg/kg i.p.) and desmethylimipramine HCl (Sigma; 25 mg/kg i.p.) were administered to the animals in order respectively to suppress 6-hydroxydopamine metabolism and prevent uptake of 6-hydroxydopamine in noradrenergic structures. […]
After the operation, the animals were placed on a warm plate and, after regaining consciousness while being monitored, returned to their cage and received feed and water ad libitum. […]
The motor deficits after the lesion were quantified using the following test as described in the respective literature: […]

Another data set deals with T2, rat CB1 receptor (Rattus norvegicus, UniProt P20272).
T2 construct: expressed in transfected cells; host or cells: CHO (CHOluc9) luciferase reporter cells
T2 sequence (P20272 whole entry): as above
Briefly: Rat CB1 luciferase reporter gene test. As to conditions: rat CHOCB1 reporter cell line, forskolin-stimulated luciferase activity. Type of data set: cell-based. The method, then:
1. Rats CB1 Luciferase Reporter Gene Test
Stock cultures of a rat CHOCB1 reporter cell line were prepared by the method described in WO-A-98/37061, page 55 et seq.
The following test protocol was used for the substance screening: the stock cultures were cultivated in 50% of Dulbecco's modified Eagle medium/50% F-12 (DMEM/F12) with 10% FCS at 37° C. under 10% CO2 and split 1:10 after 2 to 3 days in each case. Test cultures were seeded at 5000cells […] in 96-well plates and cultured at 37° C. for 70 hours. The cultures were then cautiously washed with phosphate-buffered saline and reconstituted with serum-free Ultra-CHO medium (Bio-Whittaker). The substances dissolved in DMSO were diluted 1× in medium and pipetted into the test cultures (maximum DMSO final concentration in test mixture: 0.5%). 20 minutes later, forskolin was added and the cultures were then incubated in an incubator at 37° C. for 3 hours. […] Immediately thereafter luciferase substrate solution (2.5 mM ATP, 0.5 mM luciferin, 0.1 mM coenzyme A, 10 mM tricine, 1.35 mM MgSO4, 15 mM DTT, pH 7.8) and briefly shaken, and the luciferase activity was measured using a Hamamatsu camera system. […]
The IC50 values were calculated using the GraphPadPrism program (Hill equation, specifically: one-site competition).

Turning to `O=S(=O)(CCCC(F)(F)F)Oc1cccc(-c2cccc(C(F)(F)F)c2)c1` [Example 2], in data set [1], the “maximum possible availability (Fmax)” value is listed as “up to 100%”. In data set [2] (oral, dose 3 mg/kg), the AUCnorm is 0.322 kg·h/L, the “Cmax,norm” value came out at 0.0674 kg/L and the F stood at 100%. In data set [2] (plasma, iv, dose 0.3 mg/kg), this compound gave a clearance of 51.7 mL/min/kg and a half-life of 2.2 h. In addition, the Vd in data set [2] (plasma, iv, dose 0.3 mg/kg, read-out: Vss) came out at 5.8 L/kg. Besides, in data set [2] (plasma, oral, dose 3 mg/kg), the time of peak concentration (Tmax) turned out to be 3 h and the half-life is 1.7 h. Further, at CB1 receptor, the “ED−1° C. (effective dose for reducing the body temperature by 1° C.)” value came out at 5 mg/kg. Besides, the “minimally effective dose reducing the hyperalgesia” value in the data set on rat [3] is recorded as 1 mg/kg. The “fine coordination of the forepaws in the staircase test” value with rat [4] is reported as “improvement in the fine coordination of the forepaws”.

`CCCCCS(=O)(=O)Oc1cccc(-c2cccc(C(F)(F)F)c2)c1` [Example 3] gave an IC50 against rat CB1 receptor of 2.4 nM. This lies in the single-digit nanomolar range.

Consider `Cc1ccnc(-c2cccc(OS(=O)(=O)CCCC(F)(F)F)c2)c1` [Example 17], for which, on rat CB1 receptor, the IC50 came out at 16 nM.
